Experimental data as given in patent publication US20210332083A1, “Netrin-1 Compounds and Compositions Thereof for Treating Pulmonary Hypertension” (The Regents of the University of California, priority 2018, published 2021).
Positions of bridges follow the written chain, without caps; N, C: chain ends. Non-standard residues stand in square brackets, D forms with d. No end group written: not given here. mini‑PEG = diethylene glycol

Test system: hypoxia induced pulmonary hypertensive mice
Test: Hemodynamic analysis (mPAP, RVSP by catheter) in hypoxia induced PH mice
Format: in vivo, C57BL/6 mice
Details: for mPAP (mmHg) / RVSP (mmHg): Mean ± SEM; for % Improvement (reduction in pressure/increase), RVSP / % Improvement (reduction in pressure/increase), mPAP: vs hypoxia w/o treatment; for % Reduction RVSP / % Reduction mPAP: Table 3, (negative control mmHg-netrin-1 compound)/(negative control mmHg); for mean pulmonary arterial pressure (mPAP) / right ventricular systolic pressure (RVSP): mice, 10% oxygen 21 days, 15 ng/day s.c. mini-osmotic pump, mean±SEM; for mean pulmonary arterial pressure (mPAP): hypoxia 40.54±4.473, normoxia 19.41±1.281; for right ventricular systolic pressure (RVSP): hypoxia 41.94±3.287, normoxia 32.20±1.884
Protocol: All animal experiments were approved by the Institutional Animal Care and Usage Committee at the University of California, Los Angeles (UCLA). […] groups of 9-12 weeks old male C57BL/6 mice (Charles River Laboratories, Wilmington, Mass.) were implanted using mini-osmotic pumps subcutaneously releasing the given netrin-1 compound (netrin-1, V1-9aa, V2-10aa, V3-11aa, V1P, V2P, V3P, V1S, V1T, V1D, V1C) at 15 ng/day, and the mice were housed under room air or 10% oxygen conditions in a normobaric chamber for 21 days. The hypoxic environment was maintained by continuous mixed gas flow (10% oxygen/90% nitrogen gas). The animals were fed and watered ad libitum, and cages were changed twice weekly. After the chamber was closed, the mixed gas was flushed to recover the hypoxic environment as quickly as possible. Animals were maintained at 20° C. with a 12:12-hour light-dark cycle. At the end of the treatment period, animals were anesthetized and hemodynamic analyses were performed by introducing 1.4 F catheter (Millar instruments, Houston, Tex.) into right ventricle and pulmonary artery. The right ventricular systolic blood pressure (RVSP) and the mean pulmonary arterial pressure (mPAP) were recorded using a Power Lab data acquisition system (ADInstruments Inc., CO).
All animal experiments were approved by the Institutional Animal Care and Usage Committee at the University of California, Los Angeles (UCLA). Eleven groups of 9-12 weeks old male C57BL/6 mice (Charles River Laboratories, Wilmington, Mass.) were implanted using mini-osmotic pumps subcutaneously releasing Netrin-1 derived peptides and modified peptides at 15 ng/day (Netrin-1, V1, V2, V3, V1P, V2P, V3P, V1S, V1T, V1D and V1C), and the mice were housed under room air or 10% oxygen conditions in a normobaric chamber for 21 days. The hypoxic environment was maintained by continuous mixed gas flow (10% oxygen/5% CO2 balanced with nitrogen gas). The animals were fed and watered ad libitum, and cages were changed twice weekly. After the chamber was closed, the mixed gas was flushed to recover the hypoxic environment as quickly as possible. Animals were maintained at 20° C. with a 12:12-hour light-dark cycle.
At the end of the treatment period, animals were anesthetized and hemodynamic analysis were performed by introducing 1.4 F catheter (Mikro-Tip® catheter-transducer; Model SPR-671, Millar instruments, Houston, Tex.) into both right and left ventricle and pulmonary artery. The right ventricular systolic blood pressure (RVSP), pulmonary arterial pressure (PAP), left ventricular systolic pressure (LVSP) and aortic pressure were recorded using a Power Lab data acquisition system (ADInstruments Inc., CO).

[1] = Table 2, n = 4-6, hypoxia w/o treatment 40.54 ± 4.473, normal control 19.41 ± 1.281
[2] = Table 2, n = 4-6, hypoxia w/o treatment 41.94 ± 3.281, normal control 32.20 ± 1.884
[3] = Table 2, printed over hypoxia-induced increase 9.74
[4] = Table 2, printed over hypoxia-induced increase 21.13
[5] = Table 1, n = 4-5, hypoxia w/o treatment 38.98 ± 1.747, normal control 32.20 ± 1.884
[6] = Table 1, n = 4-5, hypoxia w/o treatment 39.54 ± 5.341, normal control 19.41 ± 1.281
[7] = Table 1, hypoxia-induced increase 6.78
[8] = Table 1, hypoxia-induced increase 19.39

| Substance | mPAP (mmHg) [1] [mmHg] | RVSP (mmHg) [2] [mmHg] | reduction in pressure (of reduction in pressure/increase), RVSP [3] | reduction in pressure (of reduction in pressure/increase), mPAP [4] | % Improvement (reduction in pressure/increase), RVSP (Table 2) [%] | % Improvement (reduction in pressure/increase), mPAP (Table 2) [%] | % Reduction RVSP [%] | % Reduction mPAP [%] | mean pulmonary arterial pressure (mPAP) [mmHg] | right ventricular systolic pressure (RVSP) [mmHg] | RVSP (mmHg) [5] [mmHg] | mPAP (mmHg) [6] [mmHg] | reduction in pressure (of reduction in pressure/increase), RVSP [7] | reduction in pressure (of reduction in pressure/increase), mPAP [8] | % Improvement (reduction in pressure/increase), RVSP (Table 1) [%] | % Improvement (reduction in pressure/increase), mPAP (Table 1) [%] | attenuation (inhibition) of RVSP increase (hypoxia-induced RVSP increase) [%] |
| --- | --- | --- | --- | --- | --- | --- | --- | --- | --- | --- | --- | --- | --- | --- | --- | --- | --- |
| dCDCRHNTAdG ([dC]DCRHNTAG; cysteine pairing not given here) [V1D] | 22.89 ± 3.237 | 29.41 ± 3.876 | > 9.74 | (17.65/21.13) | 100 | 84 | 30 | 44 | 22.89±3.237 | 29.41±3.876 | – | – | – | – | – | – | – |
| (mini-PEG)-CLNCRHNTAG ({mini‑PEG}-CLNCRHNTAG; cysteine pairing not given here) [V2P] | 27.39 ± 2.973 | 29.95 ± 1.661 | > 9.74 | (13.15/21.13) | 100 | 62 | 29 | 32 | 27.39±2.973 | 29.95±1.661 | – | – | – | – | – | – | – |
| CDCRHNTAG [V1-9aa] (Peptide based on human Netrin-1 sequence) [304-312 aa of human netrin-1] | – | – | – | – | – | – | 19 | 40 | 23.83±5.149 | 31.50±3.321 | 31.50 ± 3.321 | 23.83 ± 5.149 | (>6.78/6.78) | (15.97/19.39) | 100 | 81 | – |
| (mini-PEG)-CPCKDGVTIGIT ({mini‑PEG}-CPCKDGVTIGIT; cysteine pairing not given here) [V3P] | 20.22 ± 1.304 | 29.27 ± 1.986 | > 9.74 | (20.32/21.13) | 100 | 96 | 30 | 50 | 20.22±1.304 | 29.27±1.986 | – | – | – | – | – | – | – |
| (mini-PEG)-CDCRHNTAG ({mini‑PEG}-CDCRHNTAG; not fully specified (bridges); printed as (mini-PEG)-CDCRHNTAG; cysteine pairing not given here) [V1P] | 21.88 ± 3.020 | 30.95 ± 3.867 | > 9.74 | (18.66/21.13) | 100 | 88 | 26 | 46 | 21.88±3.020 | 30.95±3.876 | – | – | – | – | – | – | – |
| CLNCRHNTAG (Peptide based on human Netrin-1 sequence) [V2-10aa, 368-377 aa] | – | – | – | – | – | – | 15 | 35 | 25.74±3.788 | 33.10±1.044 | 33.10 ± 1.044 | 25.74 ± 3.788 | (5.88/6.78) | (13.8/19.39) | 87 | 71 | 91 |
| CDCRHNTAG [V1C] (disulfide 1-3) | 17.76 ± 1.403 | 26.80 ± 3.051 | > 9.74 | (>21.32/21.13) | 100 | 100 | 36 | 56 | 17.76±1.403 | 26.80±3.051 | – | – | – | – | – | – | – |
| CPCKDGVTGIT (Peptide based on human Netrin-1 sequence) [V3-11aa, 423-433 aa] | – | – | – | – | – | – | 20 | 26 | 29.35±3.635 | 31.23±1.773 | 31.23 ± 1.773 | 29.35 ± 3.635 | (>6.78/6.78) | (10.19/19.39) | 100 | 53 | – |
| TDCRHNTAG (Peptide based on human Netrin-1 sequence) [V1T] | 24.52 ± 2.686 | 29.03 ± 2.960 | > 9.74 | (16.02/21.13) | 100 | 76 | 31 | 40 | 24.52±2.686 | 29.03±2.960 | – | – | – | – | – | – | – |
| SDCRHNTAG (Peptide based on human Netrin-1 sequence) [V1S] | 16.58 ± 1.608 | 23.62 ± 0.518 | > 9.74 | (>21.32/21.13) | 100 | 100 | 44 | 59 | 16.58±1.608 | 23.62±0.518 | – | – | – | – | – | – | – |
